In patent US8048924B2, “Methods and compositions employing 4-aminophenylacetic acid compounds” (Biocon Limited, priority 2001, dated 2011):
Entries after “also recorded” stand apart in the source; their conditions may differ.

Tested on: Clostridium difficile toxin A-induced colitis
Assay: Toxin A-induced colitis, chronic oral administration in drinking water for 5 days
Format: in vivo, Sprague-Dawley rats
Details: for doses that significantly inhibited toxin A-induced colitis: chronically for 5 days in drinking water, doses tested 1-100; for potency relative to sulfasalazine for inhibiting toxin A-induced colitis: chronic oral, dose-response studies
Procedure: Eighteen adult male Sprague-Dawley rats weighing 175-222 grams were divided into 3 groups each consisting of 6 animals: • 4-APAA (AA-002) 100 mg/kg orally+Toxin A (10 μg) injected into the lumen of the colon • Vehicle (DW) orally+Toxin A (10 μg) injected into the lumen of the colon • Vehicle (DW) orally
Following 5 days of 4-APAA administration in drinking water, both ketamine (67 mg/kg) and xylazine (33 mg/kg) were administered, an isolated colonic segment was surgically created, and 10 μg of Clostridium difficile toxin A was injected into the lumen of the colon. After 3 hours, the rats were euthanized and colonic inflammation was assessed by quantitating luminal fluid accumulation and myeloperoxidase (MPO) content in the colon tissue. In addition, histological evaluation of the treated colon segments was completed.
Drug Administration. In studies using chronic administration, sulfasalazine, APAZA™, and 4-APAA were administered in the drinking water at doses ranging from 0.1-100 mg/kg·d for 5 days. Sulfasalazine and APAZA™ were initially dissolved in 0.1 N NaOH at 30 times the desired final concentration and then the pH was adjusted to 8.5 with 1 N HCl and the solution was diluted 30-fold with distilled water. 4-APAA was dissolved in water. On the fifth day, the rats were fasted overnight (with access to their drinking water±sulfasalazine, APAZA™, or 4-APAA ad lib), anesthetized, and isolated colonic segments were surgically created as described below. In studies using acute administration, the rats were pretreated by injection of 4-APAA at doses of 10 or 100 μg in 200 μl of PBS (pH 7.4) into the lumen of the colonic segment using a 27 ga syringe needle. Toxin A (10 μg) in 200 μl of PBS (pH 7.4) was tested alone or injected into the lumen of the colonic segment 30 minutes after 4-APAA using a 27 ga syringe needle.
Surgery. Isolated colonic segments were created in male Sprague-Dawley rats (150-175 g) as described previously for isolated ileal segments (see, Gastroenterol. 111: 1272-1280 (1996) and Proc. Natl. Acad. Sci. USA 91: 947-951 (1994). Rats fasted overnight with free access to drinking water were anesthetized by intramuscular injection of 67 mg/kg ketamine:33 mg/kg xylazine. A midline abdominal incision was made and colonic segments 5 cm in length were created by ligation with 4-0 silk sutures, taking care not to disturb the vascular supply. Toxin A (10 μg) in 400 μl of PBS (pH 7.4) was injected into the lumen of the colonic segment using a 27 ga syringe needle. Control rats were prepared similarly and their colonic segments were injected with the vehicles. The midline incision was then closed with a running suture, and the rats were placed on a heating pad at 37° C. for 3 hours. After 3 hours, the rats were euthanized and samples of the treated colonic segments were taken for analysis in vitro.
Histopathology. The severity of colonic histological damage was assessed using formalin-fixed, paraffin-embedded, H&E-stained sections.
Luminal Fluid Accumulation. Luminal fluid accumulation was measured gravimetrically. After 3 hours of treatment, the isolated colonic segments were removed, weighed, and their lengths were measured. Luminal fluid accumulation is expressed as mg wet weight per cm length.
Myeloperoxidase Activity. Myeloperoxidase (MPO) activity was measured as described previously (see, J. Invest. Dermatol. 78: 206-209 (1982)). Briefly, pieces of control and treated colonic segments were homogenized in 0.5% hexadecyltrimethylammonium bromide in 50 mM KH2PO4 (pH 6), freeze/thawed three times, centrifuged at 4° C. for 2 minutes, and then the absorbance of each supernatant was read at 460 nm at 0, 30, and 60 seconds after the addition of 2.9 ml of o-dianisidine dihydrochloride to 0.1 ml supernatant. The maximal change in absorbance per minute was used to calculate the units of MPO activity based on the molar absorbency index of oxidized o-dianisidine of 1.13×10^4 M^−1 cm^−1. […]

[1] = 100 mg/kg·day in drinking water, 5 days
[2] = 100 mg/kg·day in drinking water, 5 days, toxin A 10 μg
[3] = 0.5 mg/kg·day in drinking water, 5 days
[4] = 1 mg/kg·day in drinking water, 5 days
[5] = 10 mg/kg·day in drinking water, 5 days

SMILES	toxin A-induced MPO activity, significance of inhibition [1]	toxin A-induced luminal fluid accumulation, significance of inhibition [1]	toxin A-induced structural damage of the colon (H&E) [1]	percent inhibition of toxin A-induced MPO activity [2]	percent inhibition of toxin A-induced luminal fluid accumulation [2]	doses that significantly inhibited toxin A-induced colitis	toxin A-induced structural damage of the colon (H&E) (0.1 mg/kg·day in drinking water, 5 days)	toxin A-induced luminal fluid accumulation, significance of inhibition [3]	toxin A-induced structural damage of the colon (H&E) [3]	toxin A-induced MPO activity, significance of inhibition [4]	toxin A-induced luminal fluid accumulation, significance of inhibition [4]	toxin A-induced structural damage of the colon (H&E) [4]	toxin A-induced MPO activity, significance of inhibition [5]	toxin A-induced luminal fluid accumulation, significance of inhibition [5]	toxin A-induced structural damage of the colon (H&E) [5]	potency relative to sulfasalazine for inhibiting toxin A-induced colitis	potency relative to sulfasalazine for inhibiting toxin A-induced colitis (listed as APAZA™ compound)
Nc1ccc(CC(=O)O)cc1 [4-APAA, (4-aminophenyl)-acetic acid]	significantly inhibited	significantly inhibited	protected the structural integrity; also recorded: strongly protected	89±8%	84±6%	100 mg/kg·day	–	–	–	–	–	–	–	–	–	–	–
O=C(O)Cc1ccc(/N=N/c2ccc(O)c(C(=O)O)c2)cc1 [APAZA™, 5-(4-carboxymethyl-phenylazo)-2-hydroxy-benzoic acid]	significantly inhibited	significantly inhibited	strongly protected	–	–	1-100 mg/kg·day	little if any protective effect	significantly inhibited	partially protected	significantly inhibited	significantly inhibited	strongly protected	significantly inhibited	significantly inhibited	strongly protected	10-20 fold	10-100 fold
